The conditions of series [1]: cited from earlier work.
For series [2] the following is noted: earlier study of 106 subjects referred for potential kidney donation; cited from earlier work.
The conditions of series [3]: 106 subjects referred for potential kidney donation; cited from earlier work.
The conditions of series [4]: cited from earlier work. This is another data set of the same source.
Series [5] can be described thus: Plasma protein binding by ultracentrifugation. Format: in vitro ADME, human. The conditions noted are these: healthy volunteers, mean ± SD.
Series [6] is described as follows: Renal imaging and renogram parameters. Format: in vivo, human.
Series [7] can be described thus: Percentage uptake in erythrocytes. Conditions: healthy volunteers, no correction for trapped plasma, mean ± SD. Format: in vitro ADME, human.
A short description of series [8]: Percentage injected dose in the urine of healthy volunteers. Format: in vivo, human.
For series [9] the following is noted: single dose of 10 mg, eight human volunteers; cited from earlier work.
The conditions of series [10]: determined by Health Canada; cited from earlier work.
[11] abbreviates: cortical (parenchymal) region of interest, left kidney, n = 9.
The mark [12] stands for this setting: cortical (parenchymal) region of interest, right kidney, n = 9.
The mark [13] stands for this setting: whole-kidney region of interest, relative uptake, n = 9, mean (SD).

Where “and” joins values, the source holds several entries; their conditions need not be identical. Equal entries are not always repeated. Where two headings read alike, the source gives them in different places.

On to `O=C([O-])CN=C([O-])CN=C([O-])CN=C([O-])C[S-].[O-2].[Tc+4]` [^99mTc-MAG3, ^99mTc-mercaptoacetyltriglycine], for which, in series [1], the extraction fraction is listed as 40%-60%. The “cortical 20 min/max” value in series [2] is 0.19. For the same compound, in [3], the camera-based clearance is given as 321 ± 69 mL/min/1.73 m^2. Besides, in series [4], the “clearance as percentage of the clearance of 131I-OIH” value was 50%-60%. Further, the “plasma clearance as percentage of the 131I-OIH clearance” value in series [4] (multiple studies) is 50–60%.

With `O=C([O-])CN(CCN(CC(=O)[O-])CC(=O)[O-])CCN(CC(=O)[O-])CC(=O)[O-].[99Tc+4]` [^99mTc-DTPA, ^99mTc-diethyltriaminepentaacetic acid], in series [1], the extraction fraction is listed as 20%.

As for `O=C(O)CNC(=O)c1ccccc1[131I]` [^131I-OIH, ^131I ortho-iodohippuran], the plasma protein binding in series [5] is given as 75 ± 3%. Also, in [6] (setting [11]), the “Left cortical TTP” value is listed as 2.46 ± 0.73 min and the “Left cortical TTP (min)” value was 2.46 (0.73) min. In series [6] (setting [12]), the “Right cortical TTP” value amounted to 1.98 ± 0.60 min and the “Right cortical TTP (min)” value is on record as 1.98 (0.6) min. Moreover, the “cortical 20 min/max” value in [6] (healthy volunteers, kidney side not specified) is 0.10. Also, the “Left kidney 20 min/max” value in series [6] (whole-kidney region of interest, 20 min-to-maximum count ratio, n = 9, mean (SD)) is listed as 0.11 (0.03). Moreover, the “Right kidney TTP (min)” value in series [6] (whole-kidney region of interest, n = 9, mean (SD)) is given as 2.8 (1.6) min. In addition, in series [6] (setting [13]), the “Left kidney Uptake %” value was 49.0 ± 4.1% and 49.0 (4.1) %; the “Right kidney Uptake %” value is listed as 51.0 (4.1) %. The “Left kidney TTP (min)” value in [6] (whole-kidney region of interest, time to peak of renogram, n = 9, mean (SD)) was 2.6 (0.6) min. Also, the red cell uptake in series [7] is listed as 17 ± 5%. Also, in series [4] (earlier study of healthy volunteers), the mean plasma clearance is recorded as 530 mL/min. The “percent injected dose in the urine at 30 min” value in series [8] (30 min after injection) came to 69 ± 11%. In addition, the “percent injected dose in the urine at 180 min (3 h)” value in [8] (180 min after injection) is given as 91 ± 6%.

`O=C(O)CN(CC(=O)O)CC(=O)O` [NTA, Nitrilotriacetic acid]: in [9], the “adverse effects after ingestion” value was “No adverse effects”. Moreover, the “acceptable daily intake in drinking water” value in series [10] is 10 μg/kg of body weight per day.

The record behind these values is article PMC2852246 (Journal of nuclear medicine : official publication, Society …, 2010).
